Experimental data taken from patent publication US9249159B2, “Composition for treating hepatitis C virus, regulating phosphorylation of replicase” (Industry-Academic Cooperation Foundation, Yonsei University, priority 2011, dated 2016).

Columns and labels:
[1] = tested on: genotype 1b HCV subgenomic replicon (R-1 cell line); test: HCV replication (HCV RNA by real-time RT-PCR, NS5B protein by Western blot) in R-1 subgenomic replicon cells; format: cell-based, hepatitis C virus genotype 1b; conditions: R-1 cell
Text: In order to check a PRK2 phosphorylation inhibition effect of the novel inhibitors obtained in Example 1, R-1 cell line harboring HCV subgenomic replicons was used.
The R-1 cell line was comprised of cis-acting RNA elements of 5′ and 3′-end untranslated regions (UTR) essential for replication of HCV RNA, a selection marker inserted to select a replicated RNA into a portion from which a structural protein coding site was removed, and a non-structural protein (NS3-NS5B)-coding gene required for replication. In the replicon, the selection marker was expressed by the HCV 5′-UTR and internal ribosome entry site (IRES) as a part of a coding gene of a core protein as a structural protein and capsid protein, and HCV non-structural proteins were expressed by IRES of EMCV. In order to obtain replicon cells, a HCV subgenomic replicon RNA was obtained by means of in vitro transcription by using a T7 RNA polymerase, free ribonucleotide was removed by using a spin column, and introduced into a hepatocellular carcinoma cell line by electroporation. In the presence of G418, a stable cell line, i.e. a cell line showing a resistance to G418 through replication of HCV subgenome, was obtained. Expression of the HCV non-structural proteins in this cell line was analyzed by Western blot to confirm that replication was being carried out, and the R-1 cell line was constructed. It was observed that an HCV RNA copy number was about 10^7 copies/mL by a quantitative real-time PCR analysis using a TaqMan probe. The R-1 cell line was a cell line in which HCV RNA replication was being carried out, and thus it could be used to evaluate an HCV replication inhibition effect of a PRK2 activity inhibitor.
Then, after the R-1 cell line was treated with each of 5 screened PRK2 inhibitors, HA1077 currently and clinically used as a PRK2 activity inhibitor, and Y27632 having a PRK2 activity inhibition effect at a final concentration of 20 μM for 48 hours, levels of HCV NS5B protein and HCV RNA in cell lysates (50 μg) were analyzed by Western blot and real-time RT-PCR.
To do so, after the two cell lines were treated with the compound #17 at higher concentrations (60 and 100 μM) than 20 μM for 48 hours, an HCV RNA genome level was checked by a real-time RT-PCR analysis. A value was a mean±standard deviation (SD) of three independent measurements. HCV RNA titer was quantified by real-time PCR analysis. Three independent experiments were performed in triplicate.
5 derivatives (#18 to #22: refer to FIG. 2) were produced based on the inhibitor #17 showing the best effect. After the R-1 cell line was treated with each of these inhibitors or HA1077 and Y27632 at a final concentration of 20 μM for 48 hours, an HCV RNA genome level was checked by a real-time RT-PCR analysis and expressed in % with respect to a control treated with DSMO. Three independent experiments were conducted repeatedly three times. Data were expressed by mean±SD of the three experiments.
Total RNA was extracted from R-1 or HCV (JFH1)-infected cells using TRIzol LS reagent (Invitrogen, Carlsbad, Calif., USA) and purified according to the manufacturer's instructions. HCV RNA levels were quantified by RT-PCR using a primer pair and TaqMan probe targeting a region within the HCV 5′-UTR as described previously. Cellular glyceraldehyde-3-phosphate dehydrogenase was used as an internal control. Assays were performed using the DyNAmo Probe 2-step qRT-PCR Kit (Finnzymes, Espoo, Finland) and a CHROMO4 continuous fluorescence detector (Bio-Rad, Hercules, Calif., USA), according to the manufacturer's instructions.
Therefore, anti-HCV activity of 17-DMAG in the R-1 cell was tested at a level lower than 50 nM. To do so, the R-1 cell was treated with a vehicle (0.25% DMSO) or 17-DMAG for 72 hours and the cell lysates (50 μg) and antibodies specific to the proteins were immunoblotted to measure levels of the proteins. An anti-α-tubulin antibody (lower end panel) was used as an internal loading control. […]

PDK1 = test: Steady state level of PDK1 in Huh7 cell by immunoblotting; format: cell-based; conditions: increasing concentration, 48 hours
Text: Total cell lysates from cells treated with inhibitors or IFN-α by using antibodies to PDK1, p-PDK1 (S241), PRK2, and p-PRK2 (T816) (products of Cell Signaling Technology, Inc., Beverly, Mass., USA) was used for immunoblotting. In order to detect PKC isoforms α, β, and γ, a polyclonal antibody to a consensus sequence present in three PKC (protein kinase C) isoforms α, β and γ (anti-pan-PKC; Zymed Laboratories, San Francisco, Calif., USA) was used. An anti-α-tubulin antibody (Oncogene Research Products, Cambridge, Mass., USA) was carried out in immunoblotting for checking whether or not the same amount of protein was loaded.
In order to test whether or not PDK1 in Huh7 as an HCC cell line was destabilized by inhibition of Hsp90, 17-DMAG as a second-generation geldanamycin derivative known as being safer than geldanamycin or its derivative 17-AAG and effective for oral delivery was used (FIG. 8A). The Huh7 cell was treated for 48 hours along with an increase in concentration of 17-DMAG, and a steady state level of PDK1 was evaluated by immunoblotting.

PRK2 = PRK2 level in Huh7 cell by immunoblotting; format: cell-based; conditions: 500 nM, 48 hours

With `CO[C@H]1/C=C\C=C(/C)C(=O)NC2=CC(=O)C(NCCN(C)C)=C(C[C@@H](C)C[C@H](OC)[C@H](O)[C@@H](C)/C=C(\C)[C@@H]1OC(N)=O)C2=O` [17-DMAG, 17-(dimethylaminoethylamino)-17-demethoxygeldanamycin] the “decrease in viral RNA” value ([1]; 50 nM 17-DMAG combined with 100 IU/mL IFN-α, 72 hours) was “hundredfold”, the “inhibition of HCV RNA replication” value ([1]; 50 nM, 72 hours) was “about 50%” and the “inhibition of virus replication” value ([1]; 17-DMAG 50 nM combined with HA1077 20 μM) was “approximately 80%”. For the same compound, the PDK1 level (PDK1) was “gradually and significantly decreased” and the “decrease of PRK2 level as compared with non-treated control” value (PRK2) was “about 68%”.
